Where “and” joins values, the source holds several entries; their conditions need not be identical. Equal values may be shown once. Read-outs that look alike come from different tables or passages of the source. Marks after values point to notes of the source that are not given here. Where no end group is shown, it is not given here.

This is an account of results in paper PMC3479146, “Flanking Residues Are Central to DO11.10 T Cell Hybridoma Stimulation by Ovalbumin 323–339” (PLoS ONE, 2012).

One assay concerns I-A^d. The note with it: cited from earlier work. The text has this: Table 1 Alternate registers within OVA 323–339. | column: Dissociation rate constants ^a / (k d, s^−1) || Peptide-MHC complex stability correlates broadly with immunogenicity, [21], as stable epitopes are more prevalent on the cell surface, and subsequently more likely to be recognized by responding T cells. Stability is commonly approximated as the dissociation rate of fluorescently labeled peptide from soluble MHC, although this approach can be complicated by highly overlapping registers. […] Supporting the thermodynamic stability of register one, a complex between the 323–339 peptide and I-A^d was cr ... || The HEL epitope consisting of residues 11 through 25 (HEL11-25) has been characterized as a weak MHC binder when presented by I-A^d, with a short half-life of approximately six hours that presumably results from a poorly accommodated arginine side chain in the P1 pocket. We compared the activities of wild type HEL11-25 to a variant in which the native P-4 to P-2 sequence was replaced with OVA-specific residues (QAV13-25) and a control in which these three residues were adjusted to GGS (GGS13-25). Since these changes lengthen the HEL11-25 peptide by a single amino acid, a control in whic ...

In assay [1] the test system is HEL11–25 responsive T cell hybridoma. Conditions: synthetic HEL peptide; A20 + HEL11-25 hybridoma cells, 24 h; IL-2 ELISA; 3-parameter curve fits of aggregate data from at least two experiments.
Description: We compared the activities of wild type HEL11-25 to a variant in which the native P-4 to P-2 sequence was replaced with OVA-specific residues (QAV13-25) and a control in which these three residues were adjusted to GGS (GGS13-25). Since these changes lengthen the HEL11-25 peptide by a single amino acid, a control in which the HEL11-25 peptide was appended with an N-terminal glycine in position P-3 (G11-25) was also analyzed.
Each well of a 96-well plate was seeded with 15,000 A20 cells, 15,000 T cell hydridoma cells and peptide, malE chimera protein or control peptide/protein per well in DMEM media without L-glutamine, except where noted. After a 24-hour incubation at 37°C, 5% CO2, supernatant was transferred to a new plate and stored at −80°C prior to IL-2 quantification assays. All peptide/protein doses were performed in triplicate wells and all experiments replicated at least twice.
For malE chimeras and control protein experiments, the relevant protein was thawed, concentrated using 30K molecular weight cut-off centrifugal filter units (Millipore UFC903024) and filter-sterilized. Proteins were then quantified via absorbance at 280 nm using a predicted extinction coefficient and molecular weight, diluted to equal concentrations, the concentration confirmed and serially diluted in 96-well plates. […] Proteins were pre-incubated for four hours with antigen presenting cells (A20 or 3A5) cells prior to a 24-hour incubation with T cell hybridomas. The IL-2 concentration in the supernatant was quantified using a matched pair ELISA quantified with an IL-2 standard as described (BD #555148). All experiments were performed at least twice, and all wells were measured in triplicate. Data was analyzed with Graphpad Prism 5 (La Jolla, CA).
Assay [2] relates to DO11.10 T cell hybridoma. As to the kind of experiment: DO11.10 hybridoma IL-2 secretion with A20 antigen presenting cells and exogenous OVA peptide variants. It counts as cell-based, murine. Conditions: synthetic peptide; 15,000 A20 + 15,000 DO11.10 cells per well, 24 h, 37°C, DMEM without L-glutamine; IL-2 by matched pair ELISA; 3-parameter curve fits of aggregate data from at least two experiments. The protocol: Two previous reports described anchor substitutions to stabilize register four. […] To assess the relative success of these attempts, we synthesized both variants, along with an N-terminally truncated version of the Robertson peptide (328–339 EIVS; Table 2) to remove the effects of flanking residues which we hypothesized would promote register masking. To assess peptide activity, DO11.10 hybridomas were incubated for 24 hours with I-A^d+ A20 lymphoma cells in the presence of peptide, and supernatant was subsequently assessed for the presence IL-2 by a matched pair ELISA as a measure of T cell activation. […]
(§1) Each well of a 96-well plate was seeded with 15,000 A20 cells, 15,000 T cell hydridoma cells and peptide, malE chimera protein or control peptide/protein per well in DMEM media without L-glutamine, except where noted. After a 24-hour incubation at 37°C, 5% CO2, supernatant was transferred to a new plate and stored at −80°C prior to IL-2 quantification assays. […]
For malE chimeras and control protein experiments, the relevant protein was thawed, concentrated using 30K molecular weight cut-off centrifugal filter units (Millipore UFC903024) and filter-sterilized. Proteins were then quantified via absorbance at 280 nm using a predicted extinction coefficient and molecular weight, diluted to equal concentrations, the concentration confirmed and serially diluted in 96-well plates. […]

In assay [3] the test system is DO11.10 T cell hybridoma. As to the kind of experiment: DO11.10 hybridoma IL-2 secretion with A20 cells and malE chimeras containing OVA epitope variants. Conditions: malE chimera protein pre-incubated 4 h with A20 cells, then 24 h with DO11.10, IL-2 ELISA, 3-parameter curve fits of aggregate data from at least two experiments. It counts as cell-based, murine.
Text: Peptide sequences were introduced into the exposed loop in place of residues 133–140 as first described by Martineau et al., with a glycine-serine extension (GSGSG) appended to the N-terminus of inserted epitopes to increase solubility (Figure 3A, Table 4). The activity of the N-terminally truncated peptides in MBP (325–337, 327–337, 328–337) indicates a maintained preference for wild type flanking residues as was previously observed with synthetic peptides (Figure 3A, Table 4). […] The increased activity of variants retaining the wild type P-3 and P-4 residues of register four during intracellular processing again supports their direct role in mediating the peptide and MHC interaction. […]
as §1
For malE chimeras and control protein experiments, the relevant protein was thawed, concentrated using 30K molecular weight cut-off centrifugal filter units (Millipore UFC903024) and filter-sterilized. […] The IL-2 concentration in the supernatant was quantified using a matched pair ELISA quantified with an IL-2 standard as described (BD #555148). […]

Setting [4] is: apparent first order dissociation constant of presumed isolated register from purified I-A^d, single exponential fits to monophasic dissociation data.

In the case of “323–335 Q325A: literature OVA 323–335 peptide with alanine at position 325, used for register 1 dissociation”, the “Dissociation rate constants (k d, s^−1)” value with I-A^d (setting [4]) is 2.3e-06 s⁻¹.
Consider “325–336: literature OVA 325–336 peptide used for register 3 dissociation”, for which, in the assay on I-A^d (setting [4]), the “Dissociation rate constants (k d, s^−1)” value was 2.6e-06 s⁻¹.
Consider “327–339 V327K: literature OVA 327–339 peptide with lysine at position 327, used for register 4 dissociation”, for which the “Dissociation rate constants (k d, s^−1)” value in the assay with I-A^d (apparent first order dissociation constant from purified I-A^d, back-calculated from reported half-life of dissociation) was 0.0006 s⁻¹. The “half-life of peptide dissociation from I-A^d” value in the assay on I-A^d (register four core truncated at P-2, P-2 valine altered to lysine) is “around twenty”.
On to AMKRHGLDNYRGYSL [HEL11-25], for which the “Max response (ng/ml IL-2)” value in assay [1] amounted to 0.7 ng/ml IL-2. The “half-life when presented by I-A^d” value in the assay on I-A^d is reported as “approximately six”.
As for GAMKRHGLDNYRGYSL [Peptide G11-25], in assay [1], the “Max response (ng/ml IL-2)” value worked out at 0.7 ng/ml IL-2.
As to GGSKRHGLDNYRGYSL [GGS13-25], in assay [1], the “Max response (ng/ml IL-2)” value is recorded as 0.5 ^* ng/ml IL-2.
With ISQAVHAAHAEINEAGR [323–339], the EC50 (commonly the concentration at which the effect is half-maximal) in the assay on DO11.10 T cell hybridoma [2] came to 1.6 µM.
As for “MalE chimera 325–337: maltose binding protein with OVA 325–337 replacing malE residues 133–140”, the “Max response (ng/ml IL-2)” value in the assay with DO11.10 T cell hybridoma [3] is 1.1 ^* ng/ml IL-2. The EC50 in the assay with DO11.10 T cell hybridoma [3] (read-out: EC50 (µM peptide)) turned out to be 18 µM.
Consider QAVKRHGLDNYRGYSL [QAV13-25], for which the “Max response (ng/ml IL-2)” value in assay [1] was 1.5 ng/ml IL-2 and 1.5 ^* ng/ml IL-2.
